Data on one molecule can be found in patent US20250295619A1, “Use of Salvianolic Acid E in the Preparation of Drugs Targeting Senescent Cells, Inhibiting Tumors or Extending Lifespan” (Shanghai Institute of Nutrition and Health, Chinese Academy …, priority 2024, published 2025).

“Also recorded” adds a separate entry of the source.

For test [1], the system named is PSC27. The test can be described thus: Population doubling (PD) test of PSC27. The format is cell-based, human. As to the method:
The cells were damaged by BLEO at passage 10 (p10), and then SAE was added to the medium at day 8. The effect SAE on cell proliferation potential is determined by comparative analysis of the population doubling (PD) of CTRL group, BLEO group, SAE group and BLEO/SAE group. ^, P>0.05; ***P<0.001.

Test [2] relates to PC3/PSC27 transplanted tumors. The test can be described thus: PC3/PSC27 xenograft tumor volume in NOD/SCID mice. Format: in vivo, mouse. As to conditions: single agent. The procedure:
Every two weeks was a dosing cycle, and MIT (mitoxantrone) was intraperitoneally administered to the mice on the first day of the 3rd/5th/7th weeks. From the first day of the 5th week, the mice were intraperitoneally administered with SAE, […]. After the 8-week course of treatment, the mice were dissected for pathological identification and expression analysis.
All experimental mouse experiments were carried out in strict accordance with the relevant regulations of the Institutional Animal Care and Use Committee (IACUC), Shanghai Institutes for Biological Sciences, Chinese Academy of Sciences. Immuno-deficient mice (NOD-SCID mice, ICR) (body weight about 25 g) aged 6-8 weeks were used for animal experiments related to the present patent. Stromal cells PSC27 and epithelial cells PC3 were mixed at a predetermined ratio of 1:4, and each graft contained 1.25×10^6 cells for tissue remodeling. The xenograft tumors were implanted into mice by subcutaneous transplantation, and the animals were euthanized 8 weeks after the end of the transplantation surgery. Tumor volume was calculated according to the following formula: V=(π/6)×((1+w)/2)3 (V, volume; l, length; w, width).
(§1) In a preclinical treatment trial, subcutaneously transplanted mice were fed with a standard experimental diet, after 2 weeks chemotherapy drugs mitoxantrone (MIT, dose: 0.2 mg/kg) and/or SAE (500 μl, dose: 10 mg/kg) via intraperitoneal administration. The time points were: the former was administrated on the first day of the 3rd, 5th and 7th weeks, and the latter was administrated on the first day of the 5th and 7th weeks. A total of 3 cycles of MIT administration were carried out throughout the course of treatment, and each cycle lasted for 2 weeks. After the course of treatment, mouse tumors were harvested for volume measurement and histological analysis. Each mouse cumulatively received 0.6 mg/kg body weight of MIT and 30 mg/kg body weight of SAE. In order to cause systemic expression of SASP factors induced by chemotherapy, MIT was administered to mice through intravenous infusion according to the above steps and sequence, but the dose was reduced to 0.1 mg/kg body weight/each time (the cumulative dose of MIT received in the whole course of treatment was 0.3 mg/kg body weight) to reduce drug-related toxicity. The chemotherapy experiment ended at the end of the 8th week, and the mice were dissected immediately after sacrifice, and the xenograft tumors were collected and used for pathological system analysis.

Test [3] concerns PC3/PSC27 tumors. Kind of test: Disease-free survival of tumor-bearing NOD/SCID mice. Format: in vivo, mouse. As to conditions: severe disease at tumor size ≥2000 mm3. An excerpt: When the tumor volume in the vehicle, MIT, SAE and MIT/SAE groups exceeds 2000 mm3, it is considered that severe disease has occurred, and the mice need to be killed in time and the tumor bearing status should be detected. ^, P>0.05; **, P<0.01.
Then the survival of animals in different drug-treated groups was compared, primarily in a time-prolonged manner to assess the consequences of tumor progression. In this preclinical cohort, animals were monitored for prostate tumor growth, and severe disease was judged to have occurred once the […] tumor burden in mice was prominent (size≥2000 mm3), which was a method used for assessing progression of tumors and other diseases in certain conditions.

Test [4] has as its system PSC27. The test can be described thus: SA-β-Gal staining of PSC27 cells (bleomycin-induced senescence, increasing SAE concentration). Format: cell-based, human. As to the method:
The P value of positive proportion of cells in these experimental groups for SAE at the concentrations of 100 μM, 200 μM, 400 μM, 800 μM, 1600 μM, 2000 μM and 3000 μM are statistically significant compared with the data at 0 μM.
To cause cell damage, 50 μg/mL bleomycin (bleomycin, BLEO) was added to the culture medium when PSC27 cells grew to 80% (abbreviated as PSC27-CTRL). After 12 hours of drug treatment, the cells were simply washed 3 times with PBS, left in the culture medium for 7-10 days, and then the subsequent experiments were performed.
Senescence-associated B-galactosidase (SA-β-Gal) staining was performed following a previously reported procedure (Debacq-Chainiaux, et. al., 2009). Briefly, cells in culture dishes were washed with PBS and fixed at room temperature. Cells were fixed in 2% formaldehyde and 0.2% glutaraldehyde for 3 minutes. SA-β-Gal was used for staining with freshly prepared staining solution overnight at 37° C. Images were taken on the next day and the percentage of positive cells per unit area was calculated.

The subject of a further test is SASP factors. The test can be described thus: LCM and qRT-PCR of SASP factors in mouse lesions. Format: in vivo. As to conditions: MIT/SAE vs MIT. As to the method:
The stromal cells and cancer cells were specifically separated by LCM technology, total RNA was prepared and used for SASP expression detection. ^, P>0.05; *, P<0.05; **, P<0.01.
as §1, with “The chemotherapy experiment ended at the end of the 8th week, and the mice were dissected immediately after sacrifice, and the xenograft tumors were collected and used for pathological system analysis.” left out
A general note: Quantitative PCR measures a nucleic acid by following its amplification.

For test [5], the system named is PSC27. The test can be described thus: Flow cytometry apoptosis of PSC27. Format: cell-based, human. As to conditions: SAE. An excerpt: Q2, distribution area of early apoptotic cells; Q3, distribution area of late apoptotic cells.
In test [6] the test system is PC3/PSC27 tumors. Kind of test: DNA damage and apoptosis in tumors of treated mice. The format is in vivo, mouse. An excerpt: To investigate mechanisms directly supporting this senescence-associated pattern with expression and reversal of SASP in MIT-administered mice, the inventors dissected tumors in animals treated with both drugs 7 days after the first SAE administration, and the time point of 7 days after administration was selected mainly because drug-resistant clones had not yet formed in cancer cells in the lesion at this time. […] As supporting evidence, when SAE was applied during treatment, caspase 3 cleavage activity was increased, which was a typical hallmark of apoptosis (FIG. 29).

Test [7] relates to PSC27. Kind of test: Caspase 3/7 apoptosis detection in senescent PSC27 cells (IncuCyte). The format is cell-based, human. The note with it: 200 μM SAE. As to the method: PSC27 cells gradually entered the senescent stage after being treated with BLEO for 12 hours under culture conditions. 200 μM SAE was added to the medium of senescent cells starting from day 7, NucLight Rapid Red reagent was used to label the cells and caspase 3/7 reagent (IncuCyte) was used for apoptosis detection. Caspase 3/7 activity was detected every 4 hours (n=3).
Statistical differences are obtained by two-way ANOVA (Turkey'test).
PSC27 cells were plated in a 96-well dish, and the cells were induced to senescence under 50 μg/ml of BLEO treatment. SAE and ABT263 were added at concentrations of 200 μM and 1.25 μM, respectively. Cell culture medium was supplemented with Incucyte Nuclight fast Red Reagent (Essen Bioscience) and Incucyte C-3/7 Apoptosis Reagent (Essen Bioscience). Representative field of view was selected to take pictures.

Turning to `O=C(/C=C/c1ccc(O)c(O)c1/C(=C\c1ccc(O)c(O)c1)C(=O)O[C@H](Cc1ccc(O)c(O)c1)C(=O)O)O[C@H](Cc1ccc(O)c(O)c1)C(=O)O` [SAE, salvianolic acid E], the “PD in proliferating cells” value in the test with PSC27 [1] (SAE alone) is on record as “does not affect PD”. Further, in the test with PSC27 [1] (combination with genotoxic drug (BLEO) vs genotoxic drug alone), the “population doubling (PD) ability of stromal cells after genotoxic treatment combined with SAE” value is on record as “significant increase; also recorded: significantly increased”. Further, the “tumor shrinkage by the agent itself” value in test [2] is “did not cause tumor shrinkage”. Moreover, in the test on PC3/PSC27 tumors [3], the “median survival of tumor-bearing mice” value is “only a marginal extension of survival”. For the same molecule, in the test with PSC27 [4] (SA-β-Gal staining), the “SAE concentration at which senescent cells begin to be eliminated” value came out at 200 µM and the “concentration at which the killing effect on senescent cells reaches a threshold” value came to 2000 µM. In the test with PSC27 [4] (SAE increased to 3000 μM), the “killing effect on senescent cells” value is listed as “not further enhanced”. In addition, in the test with SASP factors, the “change of SASP factor expression when SAE was administered” value was “largely reversed”. In the test on PSC27 [5], the “change of proliferating cells” value is given as “not obvious”, the “proportion of apoptosis of senescent PSC27 cells” value is “significantly increased” and the “viability of senescent PSC27 cells” value was “significantly reduced”. In addition, in the test with PC3/PSC27 tumors [6] (MIT-treated animals administered with SAE), the “indices of DNA damage or apoptosis” value was “significantly enhanced”. For the same molecule, the “caspase 3 cleavage activity” value in the test with PC3/PSC27 tumors [6] (SAE applied during treatment) is reported as “significantly increased”. Also, the “degree of DNA damage and apoptosis” value with PC3/PSC27 tumors [6] (single agent compared with placebo, 7 days after first SAE administration) was “could not induce DNA damage or cause apoptosis”. Moreover, the “caspase-3/7 activity: apoptosis of senescent cells” value in the test with PSC27 [7] is “caused apoptosis of senescent cells”. Besides, in the test with PSC27 [7] (caspase 3/7 activity), the “time after addition of SAE from which senescent and control group differ statistically” value was not below 16 h.
